Usually EC50 stands for the concentration at which the effect is half-maximal.

Experiment [1] deals with T1, Cannabinoid Receptor 2 (CB2R), human recombinant CB2 (Homo sapiens, UniProt P34972).
T1 construct: purchased Perkin-Elmer; host or cells: HEK293
Briefly: CB2R radioligand experiment on membranes from HEK293 cells over-expressing human recombinant CB2. It is filed as binding. The conditions noted are these: human recombinant CB2, radioligand [3H]CP-55,495, n=3. The procedure:
(§1) Visnadin was evaluated for its ability to activate Cannabinoid Receptor 1 (CB1R) and Cannabinoid Receptor 2 (CB2R).
CB2R experiments were performed using membranes from HEK293 cells over-expressing human recombinant CB2, as described by the manufacturer (Perkin-Elmer), and using [3H]CP-55,495 as the radioligand.
(§2) Data of active compounds are expressed in Ki (mM) and are means±SEM of n=3 determinations.
(§3) The values that are stated for each of the compounds is an EC50 value. This is defined as the molar concentration of an agonist, which produces 50% of the maximum possible response for that agonist. The values documented are in micromolar units.

The target of experiment [2] is T2, Cannabinoid Receptor 1 (CB1R), human recombinant CB1 (Homo sapiens, UniProt P21554).
T2 construct: purchased Perkin-Elmer; host or cells: HEK293
Briefly: CB1R radioligand experiment on membranes from HEK293 cells over-expressing human recombinant CB1. Particulars: human recombinant CB1, radioligand [3H]CP-55,490, n=3. It is filed as binding. The procedure:
as §1
CB1R experiments were performed using membranes from HEK293 cells over-expressing human recombinant CB1, as described by the manufacturer (Perkin-Elmer) and using [3H]CP-55,490 as the radioligand.
as §2, §3

T2 sequence (P21554 whole entry): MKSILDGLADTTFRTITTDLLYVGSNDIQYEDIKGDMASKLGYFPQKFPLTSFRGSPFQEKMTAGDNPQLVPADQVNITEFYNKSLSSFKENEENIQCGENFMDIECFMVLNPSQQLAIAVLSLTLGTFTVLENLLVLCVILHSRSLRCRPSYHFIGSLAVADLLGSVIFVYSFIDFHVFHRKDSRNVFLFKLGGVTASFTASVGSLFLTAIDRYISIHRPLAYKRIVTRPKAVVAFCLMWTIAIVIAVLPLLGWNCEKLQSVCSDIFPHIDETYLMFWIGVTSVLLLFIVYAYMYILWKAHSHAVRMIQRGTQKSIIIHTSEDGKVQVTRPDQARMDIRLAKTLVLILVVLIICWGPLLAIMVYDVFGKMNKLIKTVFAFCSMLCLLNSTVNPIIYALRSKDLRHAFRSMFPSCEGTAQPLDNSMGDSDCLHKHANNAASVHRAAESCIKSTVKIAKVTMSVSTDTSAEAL
T1 sequence (P34972 whole entry): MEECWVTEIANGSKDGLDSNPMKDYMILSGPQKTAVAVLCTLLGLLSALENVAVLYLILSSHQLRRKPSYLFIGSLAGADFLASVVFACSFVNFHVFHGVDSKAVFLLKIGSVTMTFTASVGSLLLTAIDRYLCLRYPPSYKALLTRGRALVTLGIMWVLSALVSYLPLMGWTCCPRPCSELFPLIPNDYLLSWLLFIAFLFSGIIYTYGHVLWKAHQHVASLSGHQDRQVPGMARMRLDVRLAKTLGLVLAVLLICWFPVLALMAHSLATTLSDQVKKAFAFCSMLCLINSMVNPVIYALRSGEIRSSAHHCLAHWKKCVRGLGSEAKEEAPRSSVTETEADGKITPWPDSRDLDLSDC

With `CCC(C)C(=O)O[C@@H]1[C@H](OC(C)=O)c2c(ccc3ccc(=O)oc23)OC1(C)C` (some centres unmarked) [visnadin], the EC50 in experiment [1] was 14.1 µM; in experiment [2] it was > 25 µM.

The values are drawn from patent publication US20080167284A1, “Hair And/Or Scalp Care Compositions Incorporating Visnadin” (priority 2005, published 2008).
